Data reported in US20090110671A1, “AGENT FOR ENHANCHING THE PRODUCTION OF COLLAGEN AND IT'S USE” (priority 2005, published 2009).

Columns and labels:
[1] = test system: NHDF cells; assay: Experiment 2: collagen sedimented over cell surface and released in supernatant of NHDF cells, α,α-trehalose or maltose with AA-2G; format: cell-based, human
Experimental: Influence of α,α-trehalose and maltose on collagen production using NHDF cells was examined by the following experiment: Test solutions were prepared by dissolving either AA-2G; hydrous crystalline α,α-trehalose, a reagent grade specimen, commercialized by Hayashibara Biochemical Laboratories Inc., Okayama, Japan; or hydrous crystalline maltose, a reagent grade specimen, commercialized by Hayashibara Biochemical Laboratories Inc., Okayama; Japan, in […] The methods for culturing NHDF cells and quantifying the collagen-production level of the cells were conducted similarly as in Experiment 1. The collagen level in each culture supernatant of NHDF cells was determined in such a manner of collecting the culture supernatant and quantifying the collagen released in the supernatant by using “Sircol Collagen Quantification Kit”. As a control, D-MEM medium containing 50 μM AA-2G was used. These control and test solutions were respectively experimented using three wells, followed by calculating a mean value for collagen-production levels in the wells. The results are in Table 2 where the values are expressed with relative values for either or both of the levels of collagen, that had sedimented over the cell surfaces or released in the supernatants, in terms of their collagen-production levels of NHDF cells, which had been cultured in D-MEM medium containing 50 μM AA-2G, being regarded as 100.

[2] = test system: NHDF cells; assay: Experiment 3: collagen production in NHDF cells, α,α-trehalose and saccharide derivatives with or without AA-2G; format: cell-based, human
Experimental: Based on the confirmation that α,α-trehalose has an action of enhancing the collagen production by L-ascorbic acid, it was experimented as follows to confirm whether saccharide derivatives of α,α-trehalose have such a similar action and effect. Test solutions were prepared by dissolving in D-MEM medium any one of AA-2G, hydrous crystalline α,α-trehalose, a reagent grade specimen with a purity of at least 98%, commercialized by Hayashibara Biochemical Laboratories Inc., Okayama, Japan; “HALLODEX”, a product name of a syrup of saccharide derivatives of α,α-trehalose, having a solid content of about 75% and containing, on a dry solid basis, about 53% of α-maltosyl α,α-trehalose and about 5% of other saccharide derivatives of α,α-trehalose in total, to give final concentrations of 50 μM of AA-2G and 15.0 mg/ml of saccharides. As a control, test solutions were prepared by dissolving in D-MEM medium either of the above hydrous crystalline α,α-trehalose, α-maltosyl α,α-trehalose, or syrup of saccharide derivatives of α,α-trehalose to give a final concentration of 15.0 mg/ml. The medium admixed with the syrup containing saccharide derivatives of α,α-trehalose was adjusted to give a concentration of 15.0 mg/ml of saccharide derivatives of α,α-trehalose. The culture of NHDF cells and the quantification of collagen-production level thereof were carried out similarly as in Experiment 1. The results are in Table 3, where the values are expressed with relative values in terms of the collagen production level of NHDF cells, being regarded as 100, when cultured in D-MEM medium containing AA-2G.

[3] = test system: NHDF cells (normal human dermal fibroblast cell); assay: Experiment 1: collagen production in NHDF cells (Sircol kit), α,α-trehalose with AA-2G; format: cell-based; settings: D-MEM with 50 μM AA-2G, no α,α-trehalose; reference regarded as 100
Experimental: Using “fibrocell NHDF”, a normal human dermal fibroblast cell, commercialized by Kurashiki Spinning Co., Ltd., Okayama, Japan (abbreviated as “NHDF cells”, hereinafter), experiment for studying the influence of α,α-trehalose on the collagen production by L-ascorbic acids was conducted based on the method described in Bioscience, Biotechnology, and Biochemistry, Vol. 68, No. 4, pp. 767-773, 2004. The method is outlined below: Test solutions were prepared by dissolving L-ascorbic acid 2-glucoside, a reagent grade specimen commercialized by Hayashibara Biochemical Laboratories Inc., Okayama, Japan (may be abbreviated as “AA-2G”, hereinafter), and α,α-trehalose, a reagent grade specimen commercialized by Hayashibara Biochemical Laboratories Inc., Okayama, Japan, in Dulbecco […] essential medium containing 10% (v/v) fetal calf serum and an antibiotic (abbreviated as “D-MEM”, hereinafter) to give a final concentration of 50 μM/ml of AA-2G and a final concentration of 7.5, 15 or 30 mg/ml of α,α-trehalose. NHDF cells, which had been successively cultured in D-MEM medium, were collected, re-suspended in a fresh preparation of D-MEM medium, inoculated to 96-well microplates at a cell concentration of 2.5×10^4 cells/200 μl/well, and cultured for 24 hours. Thereafter, the supernatants of the cultures were removed by sucking, and further cultured for five days after addition of any of the test solutions in a volume of 200 μl/well. As controls, the cells, which had been cultured for 24 hours, were further cultured for five days after addition of 200 μl/well of D-MEM medium, D-MEM medium supplemented with α,α-trehalose at a concentration of 30 mg/ml, or D-MEM medium supplemented with AA-2G at a concentration of 50 μM/ml. After completion of culturing, the supernatants of the cultures were removed by sucking, admixed with 50 μl/well of 1 M acetic acid solution containing 1 mg/ml of pepsin, and shaken for four hours to solubilize collagen adhered to the cell surfaces, followed by quantifying the content of collagen accumulated in the cells using “Sircol Collagen Quantification Kit”, commercialized by Biocolor Ltd. These control and test solutions were respectively experimented with three wells, followed by calculating a mean value for collagen-production levels in the wells. All the cultures of the NHDF cells were conducted in a 5% (v/v) CO2 incubator. The results are in Table 1 where the values are expressed with relative values in terms of the collagen-production level of NHDF cells, which had been cultured in D-MEM medium containing AA-2G, being regarded as 100.

[4] = test system: NHDF cells; assay: Experiment 4: collagen production in NHDF cells, saccharides combined with hyaluronic acid and/or chondroitin sulfate; format: cell-based, human
Description: Influence of α,α-trehalose or a saccharide derivative thereof, or a combination use of any of these saccharides and hyaluronic acid and/or chondroitin sulfate on the collagen production by L-ascorbic acids was examined as follows. AA-2G and any one of hydrous crystalline α,α-trehalose, a reagent grade specimen commercialized by Hayashibara Biochemical Laboratories Inc., Okayama, Japan; α-maltosyl α,α-trehalose with a purity of at least 98% commercialized by Hayashibara Biochemical Laboratories Inc., Okayama, Japan; and “HALLODEX”, a product name of a syrup of saccharide derivatives of α,α-trehalose were dissolved in D-MEM medium to give final concentrations of 50 μM of AA-2G and 15.0 mg/ml of saccharides. Further, as another test solutions, those, which had been prepared similarly as in the above, were admixed with any one of hyaluronic acid, chondroitin sulfate, and a combination thereof to give respective concentrations of 1 mg/ml, 1 mg/ml, and 0.5 mg/ml of hyaluronic acid and chondroitin sulfate each. The medium supplemented with a syrup containing about 59%, d.s.b., of saccharide derivatives of α,α-trehalose was prepared to give a concentration of 15.0 mg/ml of the saccharide derivatives of α,α-trehalose contained in the syrup. The culture of NHDF cells and the quantification of collagen-production level thereof were carried out similarly as in Experiment 1. The results are in Table 4 where the values are expressed with relative values in terms of the collagen-production level of NHDF cells, being regarded as 100, when cultured in D-MEM medium containing AA-2G.

[5] = test system: skin wrinkles/finely-wrinkles and flabby skin; assay: Experiment 5: self-evaluation of lotions on skin wrinkles/finely-wrinkles and flabby skin, four months; format: in vivo, human; settings: lotion, no saccharide, 3 times a day, 4 months
Experimental: The following experiment was conducted to examine the influence of α,α-trehalose or saccharide derivatives thereof and hyaluronic acid and/or chondroitin sulfate on the skin. Since there exists a relatively constant amount of L-ascorbic acid in vivo, the collagen production by L-ascorbic acid proceeds constantly. Based on the following basic formulation for lotion and the combination and composition in Table 5, 100 parts by weights of a lotion was prepared by adding to the basic formulation sodium hyaluronate, chondroitin sulfate, hydrous crystalline α,α-trehalose, a cosmetic grade specimen commercialized by Hayashibara Biochemical Laboratories Inc., Okayama, Japan, and “[…]”, a product name of a syrup having a solid content of about 75% and containing, on a dry solid basis, about 53% by weight of α-maltosyl α,α-trehalose and about 5% by weight of other saccharide derivatives of α,α-trehalose, and an adequate amount of refined water. In Table 5, the respective amounts of the added saccharide are expressed on a dry solid basis. The syrup containing saccharide derivatives of α,α-trehalose was added in an amount of the saccharide derivatives as shown in Table 5. Eleven women as volunteers, who had been suffering from skin wrinkles/finely-wrinkles or flabby skin, were allowed to wash their faces with any of the lotions having compositions in Table 5 three times a day for four months and then allowed to evaluate themselves about their face-skin conditions by comparing with those before use of the lotions.

[6] = saccharide 0.2 mg/ml + 50 μM AA-2G, relative to AA-2G = 100
[7] = saccharide 0.6 mg/ml + 50 μM AA-2G, relative to AA-2G = 100
[8] = saccharide 1.7 mg/ml + 50 μM AA-2G, relative to AA-2G = 100
[9] = saccharide 5.0 mg/ml + 50 μM AA-2G, relative to AA-2G = 100
[10] = saccharide 15.0 mg/ml + 50 μM AA-2G, relative to AA-2G = 100
[11] = D-MEM containing 50 μM AA-2G alone, reference regarded as 100
[12] = chondroitin sulfate 0.5 part by weight
[13] = sodium hyaluronate 0.5 part by weight

OC[C@H]1O[C@H](O[C@H]2[C@H](O)[C@@H](O)C(O)O[C@@H]2CO)[C@H](O)[C@@H](O)[C@@H]1O (mixture of isomers) [maltose]
Collagen-production level, In supernatant [1, 6]: 101 | Collagen-production level, Total [1, 6]: 99 | Collagen-production level, In supernatant [1, 7]: 134 | Collagen-production level, Total [1, 7]: 92 | Collagen-production level, In supernatant [1, 8]: 288 | Collagen-production level, Total [1, 8]: 97 | Collagen-production level, In supernatant [1, 9]: 256 | Collagen-production level, Total [1, 9]: 61 | Collagen-production level, In supernatant [1, 10]: 228 | Collagen-production level, Total [1, 10]: 44

O=C1O[C@H]([C@@H](O)CO)C(O)=C1O[C@H]1O[C@H](CO)[C@@H](O)[C@H](O)[C@H]1O [AA-2G, L-ascorbic acid 2-glucoside, reference compound]
Collagen-production level ([2]; no saccharide, 50 μM AA-2G added, reference regarded as 100): 100 | Collagen-production level [3]: 100 | Collagen-production level, In supernatant [1, 11]: 100 | Collagen-production level, Total [1, 11]: 100 | Collagen-production level ([4]; no saccharide, 50 μM AA-2G alone, reference regarded as 100): 100

OC[C@H]1O[C@H](O[C@H]2O[C@H](CO)[C@@H](O[C@H]3O[C@H](CO)[C@@H](O[C@H]4O[C@H](CO)[C@@H](O)[C@H](O)[C@H]4O)[C@H](O)[C@H]3O)[C@H](O)[C@H]2O)[C@H](O)[C@@H](O)[C@@H]1O [α-Maltosyl α,α-trehalose, α-maltosyl α,α-trehalose]
Collagen-production level [2, 10]: 182 | Collagen-production level ([2]; saccharide 15.0 mg/ml, AA-2G not added, relative to AA-2G = 100): 39 | Collagen-production level ([4]; saccharide 15.0 mg/ml + 50 μM AA-2G): 158 | Collagen-production level ([4]; saccharide 15.0 mg/ml + 50 μM AA-2G + chondroitin sulfate 1 mg/ml): 188 | Collagen-production level ([4]; saccharide 15.0 mg/ml + 50 μM AA-2G + hyaluronate and chondroitin sulfate 0.5 mg/ml each): 276 | Collagen-production level ([4]; saccharide 15.0 mg/ml + 50 μM AA-2G + sodium hyaluronate 1 mg/ml): 199 | Collagen-production level ([4]; saccharide 15.0 mg/ml alone, no AA-2G, no hyaluronate, no chondroitin sulfate): 39

chondroitin sulfate
Collagen-production level ([4]; no saccharide, 50 μM AA-2G + chondroitin sulfate 1 mg/ml): 97 | Evaluation A (remarkably efficacious) [5, 12]: 0 number of volunteers | Evaluation B (efficacious) [5, 12]: 0 number of volunteers | Evaluation C (slightly efficacious) [5, 12]: 1 number of volunteers | Evaluation D (inefficacious) [5, 12]: 10 number of volunteers

sodium hyaluronate
Collagen-production level ([4]; no saccharide, 50 μM AA-2G + sodium hyaluronate 1 mg/ml): 98 | Evaluation A (remarkably efficacious) [5, 13]: 0 number of volunteers | Evaluation B (efficacious) [5, 13]: 0 number of volunteers | Evaluation C (slightly efficacious) [5, 13]: 2 number of volunteers | Evaluation D (inefficacious) [5, 13]: 9 number of volunteers
